Assays:
[1] = test system: DMT1; experiment: Ligated duodenal loop studies, DMT1 Western blot of BBMV; parameters: species or system Swiss-Webster mice; settings: single AA formulation pH 6.5 in duodenal loop, 45 min 37 °C; relative to control (expression set to 1)
Method: Blind loop studies were conducted on 8-10-week-old male Swiss-Webster mice, as they are a commonly used outbred strain. Males were selected for initial screening purposes, but experiments will be repeated in female mice. Mice were sacrificed and duodenal segments (approximately […]) were isolated and flushed with Ringer's buffer. […] After incubation, the luminal liquid was released. […] A standard protocol for isolating BBM protein was performed for Western blot analysis (described below).
Isolation of Brush-Border Membrane Vesicles (BBMV): A light scrape of the duodenal mucosal was placed in 9.9 mL ice-cold lysis buffer with 0.1 mL Halt Protease Inhibitor Cocktail, EDTA-free 100×. Samples were homogenized on ice using an IKA T25 Ultra Turrax device for 2 min. Following homogenization, 500 μL 1 M MgCl2 was added and the sample was rotated at 4° C. for 10 minutes. Samples were then centrifuged at 10,000 rpm for 25 min using a JA-12 rotor in a Beckman-Coulter ultracentrifuge. The supernatant was transferred to new round-bottom tubes and centrifuged again at 19,000 rpm for 40 minutes using a JA-17 rotor. The remaining pellet after the second centrifugation step contained the BBMVs. The pellet was dissolved in 50 μL Ringer's buffer with protease inhibitor at a final concentration of 1×.
Sodium Dodecyl Sulfate-Polyacrylamide Gel Electrophoresis (SDS-PAGE): Protein samples, each containing 30 μg protein, were mixed with 4× Laemmli buffer and 1 M dithiolthreitol (ratio of buffer to DTT was 20:1) and incubated at 37° C. for 30 minutes. 30 μg of protein was then loaded into each lane of 8% polyacrylamide gels. SDS-PAGE was run at 90 V for 30 minutes and increased to 120 V for the duration of the electrophoresis.
Western Blot: Proteins in gels were transferred to PVDF membranes at 60 V for two hours. […] Membranes were then incubated with DMT1 primary antibody (courtesy of François Canonne-Hergaux, French Institute of Health and Medical Research, Bordeaux, France) at a 1:2000 dilution in Odyssey blocking buffer at 4° C. for at least 16 hours. Blots were rinsed with TBST for 15 minutes under fast agitation for a total of three washes. […] Blots were again rinsed with TBST for 15 minutes under fast agitation for a total of three washes. Blots were subsequently imaged and protein band signals were quantified with a Licor Odyssey CLx immunofluorescent instrument. Protein band intensities were then normalized to total protein of each lane stained with Coomassie (Gel Analyzer software) and all data was normalized to respective control lanes on the same blot.

[2] = test system: Swiss-Webster mice on an Fe-deficient diet; experiment: Iron depletion-repletion study (blood hemoglobin); format: in vivo; settings: males, 6.3 mM FeSO4 in control formulation, daily 200 μL gavage, 14 days
Method: To establish the amount of iron needed to steadily replete a mouse, the concentration was determined theoretically to be 3.15 mM in a 200 μL gavage dose, based on daily food intake and iron requirement of a rodent (35 mg/kg Fe). Two additional concentrations were included in this study: 1.575 mM and 6.3 mM, which are half and double the theoretical concentration, respectively. A control group was given 0 mM Fe gavage on chow diet to obtain normal Hb values. The Fe was dissolved in control formulation (Table 3). Three-week-old male and female Swiss-Webster mice were placed on an Fe-deficient diet in wire-overhang cages for two weeks. After two weeks baseline hemoglobin (Hb) was measured. Daily gavage began in the evening for 14 days. An additional trial included FeSO4 and ferrous fumarate at 6.3 mM and 12.6 mM per iron source, along with a control group with 0 mM Fe gavage on control diet (50 ppm Fe).
Three-week-old male and female Swiss-Webster mice were placed on an Fe-deficient diet for two weeks. After two weeks baseline hemoglobin (Hb) was measured and mice were randomized into groups so that average starting Hb values are similar. They were gavaged every evening after a 1.5 hour fast (just before the “active” phase) with a 200 μL volume containing 6.3 mM FeSO4 in control or 4 AA formulations. […] Hemoglobin was measured every three days to track repletion. […]

[3] = test system: duodenal epithelial organ cultures; experiment: Ussing chamber 59Fe flux studies; parameters: species or system Swiss-Webster mice; settings: compared to the other single AAs
Method: Ussing chamber technology was utilized to measure Fe flux in the presence of AA formulations. The Ussing chamber was balanced for at least 30 minutes prior to mounting duodenal mouse tissues. Tissues were bathed bilaterally in 10 mL of control or AA-containing buffers, containing 1.5 mM FeSO4.7H2O (“cold” Fe), and were bubbled with a 95% O2 and 5% CO2 gas mixture. Experiments were performed under conditions in which the voltage was clamped to zero, so that there was no net passive diffusion of ions and no driving force for paracellular flux. Duodenal epithelial organ cultures were mounted and equilibrated for approximately 10 minutes and were paired for mucosal-to-serosal and serosal-to-mucosal flux based on similar conductance values. Blank measurements (500 μL) were collected from the “cold” (non-radioactive) side. 15 μCi of ^59Fe (PerkinElmer, catalog #NEZ037500UC) neutralized with N-methyl-D-glucamine (NMDG) was added to each chamber, on either the mucosal or serosal side, depending upon tissue pairing. At 15-minute intervals, 500 μL samples were collected from the “cold” side for 60 minutes, and 500 μL buffer were added back to maintain a fixed volume. […] Radioactivity in the samples was measured using a PerkinElmer gamma counter, and net Fe flux was calculated as Jnet=Jms−Jsm, where Jms is mucosal to serosal flux (absorption) and Jsm is serosal to mucosal flux (secretion). […]

Compound | relative DMT1 protein expression on the BBM [1] | further results
C[C@@H](O)[C@H](N)C(=O)O [threonine] | lowest relative DMT1 protein expression | 
O.O.O.O.O.O.O.O=S(=O)([O-])[O-].[Fe+2] [FeSO4] |  | blood hemoglobin during repletion [2]: steady increase
NC(=O)CC[C@H](N)C(=O)O [glutamine] |  | net Fe flux with individual AAs from the 4 AA formulation [3]: lowest flux
N[C@@H](CO)C(=O)O [serine] | lowest relative DMT1 protein expression | 
N[C@@H](Cc1ccc(O)cc1)C(=O)O [tyrosine] | lowest relative DMT1 protein expression | 
CC(C)[C@H](N)C(=O)O [valine] | lowest relative DMT1 protein expression | 
NCCCC[C@H](N)C(=O)O [lysine] | lowest relative DMT1 protein expression | 

— patent US20220016063A1, “COMPOSITIONS THAT ENHANCE IRON ABSORPTION AND METHODS OF USE THEREOF” (UNIVERSITY OF FLORDIA RESEARCH FOUNDATION, INCORPORATED, priority 2018, published 2022)
